In patent US7968577B2 (Bristol-Myers Squibb Company, priority 2006, dated 2011):

System: AP-1 induced transcriptional activity
Test: Cellular Transrepressional Assay: AP-1 luciferase reporter in PMA-activated A549 cells
Assay type: cell-based
Settings: for Emax: A549, 7 h, read-out: AP-1 Max % inh (Cellular Transrepression Assay)
Protocol: Cellular Transrepressional Assay
To measure the ability of test molecules to inhibit AP-1 induced transcriptional activity we utilized an A549 cell which was stably transfected with a plasmid containing 7× AP-1 DNA binding sites (pAP-1-Luc plasmid, Stratagene Co. La Jolla, Calif.) followed by the gene for luciferase. Cells were activated with 10 ng/ml of […] (PMA) plus or minus test molecules for 7 hours. After 7 hours a luciferase reagent was added to measure luciferase enzymatic activity in the cell. After a 10 minute incubation of luciferase reagent with cells, luminescence was measured in a TopCount luminescence counter. Repression of AP-1 activity was calculated as the percentage decrease in the signal induced by PMA alone. Test molecules were analyzed in the concentration range from 0.1 nM to 40 μM. EC50s were determined by using standard curve fitting methods such as Excel fit (Microsoft Co.).

[1] = Homo sapiens, maximum inhibition, Cellular Transrepression Assay
[2] = Homo sapiens, A549, Cellular Transrepression Assay

In the case of `CC(C)(C(=O)Nc1nncs1)C(c1ccccc1)c1ccc(-c2ccccc2)cc1` (centres unmarked) [Example 402, 3-(4-biphenylyl)-2,2-dimethyl-3-phenyl-N-1,3,4-thiadiazol-2-ylpropanamide], the Emax [1] is reported as 26.5% and the EC50 [2] is reported as 7.9 nM.

`COc1cccc(C(c2ccccc2)C(C)(C)C(=O)Nc2nc(Cc3ccc(-c4ccncc4)cc3)cs2)c1` (centres unmarked) [Example 305, 2,2-dimethyl-3-(3-(methyloxy)phenyl)-3-phenyl-N-(4-((4-(4-pyridinyl)phenyl)methyl)-1,3-thiazol-2-yl)propanamide] showed an Emax [1] of 84.2% and an EC50 [2] of 22.5 nM.

With `COc1ccc(Cc2csc(NC(=O)C(C)(C)C(c3ccccc3)c3ccc(OC)cc3)n2)cc1` (centres unmarked) [Example 288, 2,2-dimethyl-3-(4-(methyloxy)phenyl)-N-(4-((4-(methyloxy)phenyl)methyl)-1,3-thiazol-2-yl)-3-phenylpropanamide] the Emax [1] was 62.2% and the EC50 [2] was 216 nM.

With `CC(C)c1cccc(-c2ccc(C(c3ccccc3)C(C)(C)C(=O)Nc3nncs3)cc2)c1` (centres unmarked) [Example 423, 3-(3′-isopropyl-4-biphenylyl)-2,2-dimethyl-3-phenyl-N-1,3,4-thiadiazol-2-ylpropanamide] the Emax [1] was 34.8% and the EC50 [2] was 6.07 nM.

Work on `CC(C)(C(=O)Nc1nncs1)C(c1ccccc1)c1ccc(O)c(F)c1` (centres unmarked) [Example 348, 3-(3-fluoro-4-hydroxyphenyl)-2,2-dimethyl-3-phenyl-N-1,3,4-thiadiazol-2-ylpropanamide] yielded an Emax [1] of 54% and an EC50 [2] of 120 nM.

For `CC(C)(C(=O)Nc1nccs1)[C@@H](c1ccccc1)c1ccc(O)c(C#N)c1` [Example 359, (3S)-3-(3-Cyano-4-hydroxyphenyl)-2,2-dimethyl-3-phenyl-N-1,3-thiazol-2-ylpropanamide], the Emax [1] was 65.2% and the EC50 [2] was 278 nM.

`O=C(Nc1nccs1)C1(C(c2ccccc2)c2ccccc2)CCCC1` [Example 162, 1-(diphenylmethyl)-N-1,3-thiazol-2-ylcyclopentanecarboxamide] gave an Emax [1] of 22.8%.

Compound `CC(C)(C(=O)Nc1nccs1)C(c1ccccc1)c1ccc(O)c(F)c1` (centres unmarked) [Example 345, 3-(3-fluoro-4-hydroxyphenyl)-2,2-dimethyl-3-phenyl-N-1,3-thiazol-2-ylpropanamide] has an EC50 (Cellular Transrepression Assay) of 35.2 nM and an Emax [1] of 68.1%.

With `CC(C)(C(=O)Nc1nncs1)C(c1ccccc1)c1ccc(N2CCOCC2)cc1` (centres unmarked) [Example 260, 2,2-dimethyl-3-(4-(4-morpholinyl)phenyl)-3-phenyl-N-1,3,4-thiadiazol-2-ylpropanamide] the EC50 (Cellular Transrepression Assay) was 4.06 nM and the “AP-1 Max % inh (Cellular Transrepression Assay)” value (maximum inhibition, Cellular Transrepression Assay) was 35.64%.

In the case of `COc1ccc(Cc2csc(NC(=O)C(C)(C)C(c3ccccc3)c3ccc(O)cc3)n2)cc1` (centres unmarked) [Example 352], the Emax [1] is reported as 61.7% and the EC50 [2] is reported as 118 nM.

In the case of `CC(C)(C(=O)NC1CCCC1)[C@@H](c1ccccc1)c1ccc(O)cc1` [Example 335, (3S)-N-cyclopentyl-3-(4-hydroxyphenyl)-2,2-dimethyl-3-phenylpropanamide], the Emax [1] is reported as 21.2% and the EC50 [2] is reported as 9.32 nM.

In the case of `CCOC(=O)c1sc(NC(=O)C(C)(C)C(c2ccccc2)c2cccc(O)c2)nc1C` (centres unmarked) [Example 206, ethyl 2-((3-(3-hydroxyphenyl)-2,2-dimethyl-3-phenylpropanoyl)amino)-4-methyl-1,3-thiazole-5-carboxylate], the Emax [1] is reported as 37.7%.

With `COc1ccc(C(c2ccccc2)C(C)(C)C(=O)Nc2nc(CCc3ccccc3)cs2)cc1` (centres unmarked) [Example 109, 2,2-dimethyl-3-(4-(methyloxy)phenyl)-3-phenyl-N-(4-(2-phenylethyl)-1,3-thiazol-2-yl)propanamide] the Emax [1] was 22.6%.

Compound `CC(C)(C(=O)Nc1nc(Cc2ccc(-c3ccncc3)cc2)cs1)C(c1ccccc1)c1ccc(N2CCOCC2)cc1` (centres unmarked) [Example 223, 2,2-dimethyl-3-(4-(4-morpholinyl)phenyl)-3-phenyl-N-(4-((4-(4-pyridinyl)phenyl)methyl)-1,3-thiazol-2-yl)propanamide] has an Emax [1] of 70.8% and an EC50 [2] of 88.1 nM.

In the case of `CCOC(=O)c1sc(NC(=O)C(C)(C)C(c2ccccc2)c2ccc(O)cc2)nc1C` (centres unmarked) [Example 218, ethyl 2-((3-(4-hydroxyphenyl)-2,2-dimethyl-3-phenylpropanoyl)amino)-4-methyl-1,3-thiazole-5-carboxylate], the Emax [1] is reported as 38%.

Compound `CC(C)(C(=O)Nc1nncs1)C(c1ccccc1)c1ccc(-c2ccc(OC(F)(F)F)cc2)cc1` (centres unmarked) [Example 405, 2,2-dimethyl-3-phenyl-N-1,3,4-thiadiazol-2-yl-3-(4′-(trifluoromethoxy)-4-biphenylyl)propanamide] has an Emax [1] of 35.2% and an EC50 [2] of 24.6 nM.

In the case of `CC(C)Cc1ccc(-c2ccc(C(CC(C)C)C(C)(C)C(=O)Nc3nccs3)cc2)cc1` (centres unmarked) [Example 396, 2,2,5-trimethyl-3-(4′-(2-methylpropyl)-4-biphenylyl)-N-1,3-thiazol-2-ylhexanamide], the Emax [1] is reported as 31.5% and the EC50 [2] is reported as 227 nM.

In the case of `CC(C)(C(=O)Nc1nc(Cc2ccc(-c3ccncc3)cc2)cs1)[C@@H](c1ccccc1)c1ccc(O)cc1` [Example 354, 3-(4-hydroxyphenyl)-2,2-dimethyl-3-phenyl-N-(4-((4-(4-pyridinyl)phenyl)methyl)-1,3-thiazol-2-yl)propanamide], the Emax [1] is reported as 71.8% and the EC50 [2] is reported as 158 nM.

`COc1cccc(C(c2ccccc2)C(C)(C)C(=O)Nc2ncc(C)s2)c1` (centres unmarked) [Example 93, 2,2-dimethyl-3-(3-(methyloxy)phenyl)-N-(5-methyl-1,3-thiazol-2-yl)-3-phenylpropanamide] showed an Emax [1] of 28.1%.

For `CC(C)(C(=O)Nc1nccs1)C(c1ccc(N2CCOCC2)cc1)c1cccc(F)c1` (centres unmarked) [Example 228, 3-(3-fluorophenyl)-2,2-dimethyl-3-(4-(4-morpholinyl)phenyl)-N-1,3-thiazol-2-ylpropanamide], the Emax [1] was 36.9% and the EC50 [2] was 33.5 nM.

In the case of `COc1ccc(C(c2ccccc2)C(C)(C)C(=O)Nc2nc(-c3ccccc3)cs2)cc1` (centres unmarked) [Example 107, 2,2-dimethyl-3-(4-(methyloxy)phenyl)-3-phenyl-N-(4-phenyl-1,3-thiaozl-2-yl)propanamide], the Emax [1] is reported as 38.4%.

With `COc1ccccc1C(c1ccccc1)C(C)(C)C(=O)Nc1nc(C)cs1` (centres unmarked) [Example 81, 2,2-dimethyl-3-(2-(methyloxy)phenyl)-N-(4-methyl-1,3-thiazol-2-yl)-3-phenylpropanamide] the Emax [1] was 23.1%.

`COc1ccc(C(c2ccc(OC)cc2)C(C)(C)C(=O)Nc2nc(Cc3ccc(-c4ccncc4)cc3)cs2)cc1` [Example 304, 2,2-dimethyl-3,3-bis(4-(methyloxy)phenyl)-N-(4-((4-(4-pyridinyl)phenyl)methyl)-1,3-thiazol-2-yl)propanamide] gave an Emax [1] of 74.5% and an EC50 [2] of 19.9 nM.

In the case of `COc1ccccc1C(c1ccccc1)C(C)(C)C(=O)Nc1ncc(C)s1` (centres unmarked) [Example 82, 2,2-dimethyl-3-(2-(methyloxy)phenyl)-N-(5-methyl-1,3-thiazol-2-yl)-3-phenylpropanamide], the Emax [1] is reported as 25.9%.

`COc1cccc(C(c2ccccc2)C(C)(C)C(=O)Nc2nc(CCc3ccccc3)cs2)c1` (centres unmarked) [Example 97, 2,2-dimethyl-3-(3-(methyloxy)phenyl)-3-phenyl-N-(4-(2-phenylethyl)-,3-thiaozl-2-yl)propanamide] showed an Emax [1] of 26.5%.

Compound `CC(C)(C(=O)Nc1nc(Cc2ccc(-c3ccncc3)cc2)cs1)C(c1ccc(O)cc1)c1ccc(O)cc1` [Example 356] has an Emax [1] of 61.1% and an EC50 [2] of 736 nM.

Work on `COc1ccc(C(c2ccccc2)C(C)(C)C(=O)Nc2nc(C)cs2)cc1` (centres unmarked) [Example 104, 2,2-dimethyl-3-(4-(methyloxy)phenyl)-N-(4-methyl-1,3-thiazol-2-yl)-3-phenylpropanamide] yielded an Emax [1] of 27.3%.

Work on `CCCc1ccc(-c2ccc(C(CC(C)C)C(C)(C)C(=O)Nc3nccs3)cc2)cc1` (centres unmarked) [Example 398, 2,2,5-trimethyl-3-(4′-propyl-4-biphenylyl)-N-1,3-thiazol-2-ylhexanamide] yielded an Emax [1] of 28.2% and an EC50 [2] of 70 nM.

Compound `CC(C)(C)c1ccc(C(c2ccccc2)C(C)(C)C(=O)Nc2nc(Cc3ccc(-c4ccncc4)cc3)cs2)cc1` (centres unmarked) [Example 303, 3-(4-(1,1-dimethylethyl)phenyl)-2,2-dimethyl-3-phenyl-N-(4-((4-(4-pyridinyl)phenyl)methyl)-1,3-thiazol-2-yl)propanamide] has an Emax [1] of 75.7% and an EC50 [2] of 16.6 nM.

`COc1ccc(C(c2ccccc2)C(C)(C)C(=O)Nc2nc(Cc3ccc(-c4ccncc4)cc3)cs2)cc1` (centres unmarked) [Example 289, 2,2-dimethyl-3-(4-(methyloxy)phenyl)-3-phenyl-N-(4-((4-(4-pyridinyl)phenyl)methyl)-1,3-thiazol-2-yl)propanamide] showed an Emax [1] of 71.6% and an EC50 [2] of 18.5 nM.

`CC(C)(C(=O)Nc1nc2ccc(Cl)cc2s1)C(c1ccccc1)c1ccc(O)cc1` (centres unmarked) [Example 220, N-(6-chloro-1,3-benzothiazol-2-yl)-3-(4-hydroxyphenyl)-2,2-dimethyl-3-phenylpropanamide] showed an Emax [1] of 36.2%.

Work on `COc1cccc(C(c2ccccc2)C(C)(C)C(=O)Nc2nc(-c3ccccc3)cs2)c1` (centres unmarked) [Example 95, 2,2-dimethyl-3-(3-(methyloxy)phenyl)-3-phenyl-N-(4-phenyl-1,3-thiaozl-2-yl)propanamide] yielded an Emax [1] of 36.2%.

Compound `CC(C)(C(=O)Nc1nccs1)C(c1ccc(N2CCOCC2)cc1)c1cccc(F)c1` (single isomer, unassigned) [Example 253, 3-(3-fluorophenyl)-2,2-dimethyl-3-(4-(4-morpholinyl)phenyl)-N-1,3-thiazol-2-ylpropanamide] has an Emax [1] of 27.9% and an EC50 [2] of 37 nM.

In the case of `CC(=O)Oc1ccc([C@H](c2ccccc2)C(C)(C)C(=O)Nc2nccs2)cc1` [Example 361, 4-((1S)-2,2-dimethyl-3-oxo-1-phenyl-3-(1,3-thiazol-2-ylamino)propyl)phenyl acetate], the Emax [1] is reported as 36.4% and the EC50 [2] is reported as 13.3 nM.
